Measured values as given in PubChem BioAssay (NCI).
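Five compound concentrations were applied to cells in 96-well plates for 48 hours; endpoints were derived by simple linear interpolation of the resulting dose-response curve. GI50 = concentration required for 50% inhibition of growth. TGI: total growth inhibition.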

Experiments:
Test in all cases: growth of human tumour cells (NCI), 48 h; in the data active means GI50 below about 0.43 µM; inactive means the rest
786-0 renal = tested on: 786-0 renal
A498 renal = tested on: A498 renal
A549 NSCLC = tested on: A549 NSCLC
ACHN renal = tested on: ACHN renal
BT-549 breast = tested on: BT-549 breast
CAKI-1 renal = tested on: CAKI-1 renal
COLO 205 colon = tested on: COLO 205 colon
DU-145 prostate = tested on: DU-145 prostate
EKVX NSCLC = tested on: EKVX NSCLC
HCT-116 colon = tested on: HCT-116 colon
HCT-15 colon = tested on: HCT-15 colon
HL-60(TB) leukemia = tested on: HL-60(TB) leukemia
HOP-62 NSCLC = tested on: HOP-62 NSCLC
HOP-92 NSCLC = tested on: HOP-92 NSCLC
HS 578T breast = tested on: HS 578T breast
HT29 colon = tested on: HT29 colon
IGROV1 ovarian = tested on: IGROV1 ovarian
K-562 leukemia = tested on: K-562 leukemia
KM12 colon = tested on: KM12 colon
LOX IMVI melanoma = tested on: LOX IMVI melanoma
M14 melanoma = tested on: M14 melanoma
MCF7 breast = tested on: MCF7 breast
MDA-MB-435 = tested on: MDA-MB-435
MOLT-4 leukemia = tested on: MOLT-4 leukemia
NCI-H226 lung = tested on: NCI-H226 lung
NCI-H23 lung = tested on: NCI-H23 lung
NCI-H460 lung = tested on: NCI-H460 lung
NCI-H522 lung = tested on: NCI-H522 lung
NCI/ADR-RES ovarian = tested on: NCI/ADR-RES ovarian
OVCAR-3 ovarian = tested on: OVCAR-3 ovarian
OVCAR-4 ovarian = tested on: OVCAR-4 ovarian
OVCAR-5 ovarian = tested on: OVCAR-5 ovarian
OVCAR-8 ovarian = tested on: OVCAR-8 ovarian
PC-3 prostate = tested on: PC-3 prostate
RPMI-8226 leukemia = tested on: RPMI-8226 leukemia
RXF 393 renal = tested on: RXF 393 renal
SF-268 CNS = tested on: SF-268 CNS
SF-295 CNS = tested on: SF-295 CNS
SF-539 CNS = tested on: SF-539 CNS
SK-MEL-2 melanoma = tested on: SK-MEL-2 melanoma
SK-MEL-28 melanoma = tested on: SK-MEL-28 melanoma
SK-MEL-5 melanoma = tested on: SK-MEL-5 melanoma
SK-OV-3 ovarian = tested on: SK-OV-3 ovarian
SN12C renal = tested on: SN12C renal
SNB-19 CNS = tested on: SNB-19 CNS
SNB-75 CNS = tested on: SNB-75 CNS
SR leukemia = tested on: SR leukemia
SW-620 colon = tested on: SW-620 colon
T-47D breast = tested on: T-47D breast
TK-10 renal = tested on: TK-10 renal
U251 CNS = tested on: U251 CNS
UACC-257 melanoma = tested on: UACC-257 melanoma
UACC-62 melanoma = tested on: UACC-62 melanoma
UO-31 renal = tested on: UO-31 renal
HCC-2998 colon = tested on: HCC-2998 colon
MALME-3M melanoma = tested on: MALME-3M melanoma
MDA-MB-231 breast = tested on: MDA-MB-231 breast

COc1ccc2c(c1OC)C(=O)O[C@@H]2[C@H]1c2c(c(Br)c3c(c2OC)OCO3)CCN1C
25 µM: TGI (M14 melanoma)
> 100 µM: TGI (786-0 renal) | TGI (A498 renal) | TGI (A549 NSCLC) | TGI (ACHN renal) | TGI (BT-549 breast) | TGI (COLO 205 colon) | TGI (DU-145 prostate) | TGI (EKVX NSCLC) | TGI (HCT-116 colon) | TGI (HCT-15 colon) | TGI (HL-60(TB) leukemia) | TGI (HOP-92 NSCLC) | TGI (HS 578T breast) | TGI (HT29 colon) | TGI (IGROV1 ovarian) | TGI (K-562 leukemia) | TGI (KM12 colon) | TGI (LOX IMVI melanoma) | TGI (MCF7 breast) | TGI (MOLT-4 leukemia) | TGI (NCI-H226 lung) | TGI (NCI-H23 lung) | TGI (NCI-H460 lung) | TGI (NCI-H522 lung) | TGI (NCI/ADR-RES ovarian) | TGI (OVCAR-4 ovarian) | TGI (OVCAR-5 ovarian) | TGI (OVCAR-8 ovarian) | TGI (PC-3 prostate) | TGI (RPMI-8226 leukemia) | TGI (RXF 393 renal) | TGI (SF-268 CNS) | TGI (SF-539 CNS) | TGI (SK-MEL-2 melanoma) | TGI (SK-MEL-28 melanoma) | TGI (SK-MEL-5 melanoma) | TGI (SK-OV-3 ovarian) | TGI (SN12C renal) | TGI (SNB-19 CNS) | TGI (SNB-75 CNS) | TGI (SR leukemia) | TGI (SW-620 colon) | TGI (T-47D breast) | TGI (U251 CNS) | TGI (UACC-257 melanoma) | TGI (UACC-62 melanoma) | TGI (UO-31 renal)
29.6 µM: TGI (MDA-MB-435)
40.8 µM: TGI (OVCAR-3 ovarian)
94.5 µM: TGI (TK-10 renal)
91.2 µM: TGI (HOP-62 NSCLC)
inactive: GI50 (786-0 renal) 12 µM | GI50 (A498 renal) 27.6 µM | GI50 (A549 NSCLC) 8.57 µM | GI50 (ACHN renal) > 100 µM | GI50 (BT-549 breast) > 100 µM | GI50 (CAKI-1 renal) 4.22 µM | GI50 (COLO 205 colon) 27.1 µM | GI50 (DU-145 prostate) > 100 µM | GI50 (EKVX NSCLC) 41.8 µM | GI50 (HCT-116 colon) 4.69 µM | GI50 (HCT-15 colon) 4.67 µM | GI50 (HL-60(TB) leukemia) 1.82 µM | GI50 (HOP-62 NSCLC) 6.47 µM | GI50 (HOP-92 NSCLC) 21.7 µM | GI50 (HS 578T breast) 31.4 µM | GI50 (HT29 colon) 47 µM | GI50 (IGROV1 ovarian) 7.77 µM | GI50 (K-562 leukemia) 2.73 µM | GI50 (KM12 colon) 4.49 µM | GI50 (LOX IMVI melanoma) 6 µM | GI50 (M14 melanoma) 3.3 µM | GI50 (MCF7 breast) 4.18 µM | GI50 (MDA-MB-435) 3.55 µM | GI50 (MOLT-4 leukemia) 4.09 µM | GI50 (NCI-H226 lung) 44.1 µM | GI50 (NCI-H23 lung) > 100 µM | GI50 (NCI-H460 lung) 3.6 µM | GI50 (NCI-H522 lung) 6.78 µM | GI50 (NCI/ADR-RES ovarian) 9.22 µM | GI50 (OVCAR-3 ovarian) 10.6 µM | GI50 (OVCAR-4 ovarian) > 100 µM | GI50 (OVCAR-5 ovarian) > 100 µM | GI50 (OVCAR-8 ovarian) 32.4 µM | GI50 (PC-3 prostate) 9.11 µM | GI50 (RPMI-8226 leukemia) 6.97 µM | GI50 (RXF 393 renal) 20.3 µM | GI50 (SF-268 CNS) 18 µM | GI50 (SF-295 CNS) 10.8 µM | GI50 (SF-539 CNS) 7.09 µM | GI50 (SK-MEL-2 melanoma) > 100 µM | GI50 (SK-MEL-28 melanoma) > 100 µM | GI50 (SK-MEL-5 melanoma) 4.12 µM | GI50 (SK-OV-3 ovarian) > 100 µM | GI50 (SN12C renal) > 100 µM | GI50 (SNB-19 CNS) 75.9 µM | GI50 (SNB-75 CNS) 93.3 µM | GI50 (SR leukemia) 0.918 µM | GI50 (SW-620 colon) 5.37 µM | GI50 (T-47D breast) 80.5 µM | GI50 (TK-10 renal) 14.4 µM | GI50 (U251 CNS) 8.8 µM | GI50 (UACC-257 melanoma) 7.76 µM | GI50 (UACC-62 melanoma) 4.31 µM | GI50 (UO-31 renal) > 100 µM
37.5 µM: TGI (CAKI-1 renal)
47.4 µM: TGI (SF-295 CNS)

COc1ccc(CN=C(N)N=C(N)N)cc1OC
> 1000 µM: TGI (786-0 renal) | TGI (A498 renal) | TGI (A549 NSCLC) | TGI (ACHN renal) | TGI (BT-549 breast) | TGI (CAKI-1 renal) | TGI (COLO 205 colon) | TGI (DU-145 prostate) | TGI (EKVX NSCLC) | TGI (HCC-2998 colon) | TGI (HCT-116 colon) | TGI (HCT-15 colon) | TGI (HL-60(TB) leukemia) | TGI (HOP-62 NSCLC) | TGI (HS 578T breast) | TGI (HT29 colon) | TGI (IGROV1 ovarian) | TGI (K-562 leukemia) | TGI (KM12 colon) | TGI (LOX IMVI melanoma) | TGI (M14 melanoma) | TGI (MALME-3M melanoma) | TGI (MCF7 breast) | TGI (MDA-MB-231 breast) | TGI (MDA-MB-435) | TGI (MOLT-4 leukemia) | TGI (NCI-H226 lung) | TGI (NCI-H23 lung) | TGI (NCI-H460 lung) | TGI (NCI-H522 lung) | TGI (NCI/ADR-RES ovarian) | TGI (OVCAR-3 ovarian) | TGI (OVCAR-4 ovarian) | TGI (OVCAR-5 ovarian) | TGI (OVCAR-8 ovarian) | TGI (RXF 393 renal) | TGI (SF-268 CNS) | TGI (SF-295 CNS) | TGI (SF-539 CNS) | TGI (SK-MEL-2 melanoma) | TGI (SK-MEL-28 melanoma) | TGI (SK-MEL-5 melanoma) | TGI (SK-OV-3 ovarian) | TGI (SN12C renal) | TGI (SNB-19 CNS) | TGI (SNB-75 CNS) | TGI (SW-620 colon) | TGI (T-47D breast) | TGI (TK-10 renal) | TGI (U251 CNS) | TGI (UACC-257 melanoma) | TGI (UACC-62 melanoma) | TGI (UO-31 renal)
inactive: GI50 (786-0 renal) > 1000 µM | GI50 (A498 renal) 151 µM | GI50 (A549 NSCLC) 404 µM | GI50 (ACHN renal) > 1000 µM | GI50 (BT-549 breast) 260 µM | GI50 (CAKI-1 renal) > 1000 µM | GI50 (COLO 205 colon) > 1000 µM | GI50 (DU-145 prostate) > 1000 µM | GI50 (EKVX NSCLC) 40.1 µM | GI50 (HCC-2998 colon) > 1000 µM | GI50 (HCT-116 colon) > 1000 µM | GI50 (HCT-15 colon) > 1000 µM | GI50 (HL-60(TB) leukemia) 706 µM | GI50 (HOP-62 NSCLC) 602 µM | GI50 (HS 578T breast) > 1000 µM | GI50 (HT29 colon) > 1000 µM | GI50 (IGROV1 ovarian) > 1000 µM | GI50 (K-562 leukemia) 362 µM | GI50 (KM12 colon) > 1000 µM | GI50 (LOX IMVI melanoma) > 1000 µM | GI50 (M14 melanoma) > 1000 µM | GI50 (MALME-3M melanoma) 365 µM | GI50 (MCF7 breast) 855 µM | GI50 (MDA-MB-231 breast) > 1000 µM | GI50 (MDA-MB-435) > 1000 µM | GI50 (MOLT-4 leukemia) > 1000 µM | GI50 (NCI-H226 lung) 619 µM | GI50 (NCI-H23 lung) 522 µM | GI50 (NCI-H460 lung) > 1000 µM | GI50 (NCI-H522 lung) 714 µM | GI50 (NCI/ADR-RES ovarian) > 1000 µM | GI50 (OVCAR-3 ovarian) 612 µM | GI50 (OVCAR-4 ovarian) 215 µM | GI50 (OVCAR-5 ovarian) > 1000 µM | GI50 (OVCAR-8 ovarian) 444 µM | GI50 (RXF 393 renal) > 1000 µM | GI50 (SF-268 CNS) 472 µM | GI50 (SF-295 CNS) 194 µM | GI50 (SF-539 CNS) > 1000 µM | GI50 (SK-MEL-2 melanoma) 859 µM | GI50 (SK-MEL-28 melanoma) 960 µM | GI50 (SK-MEL-5 melanoma) 223 µM | GI50 (SK-OV-3 ovarian) > 1000 µM | GI50 (SN12C renal) 358 µM | GI50 (SNB-19 CNS) 482 µM | GI50 (SNB-75 CNS) 192 µM | GI50 (SW-620 colon) > 1000 µM | GI50 (T-47D breast) 907 µM | GI50 (TK-10 renal) > 1000 µM | GI50 (U251 CNS) 398 µM | GI50 (UACC-257 melanoma) 448 µM | GI50 (UACC-62 melanoma) 558 µM | GI50 (UO-31 renal) > 1000 µM
